From patent publication US20210023120A1, “COMPOSITIONS FOR THE DELIVERY OF tRNA AS NANOPARTICLES AND METHODS OF USE THEREWITH” (The Board of Regents of the University of Texas System, priority 2016, published 2021) come the findings set out here.

The assay relates to p53. The assay is described as follows: Nanoparticle carrier screen in Calu6 cells (p53 Western blot). It is filed as cell-based. As to conditions: nmP53 (R196X), exogenous tRNAArg/OP, 48 hr exposure, FIGS. 6B, 9, 10, 12. On the procedure: Calu6 cells were seeded at a density of 500,000 cells per well in a 6-well format and allowed to attach over night. For plasmid DNA, 1 μg was transfected using 3 μl of Lipofectamine 2000 using manufacturer recommend protocols. For tRNA^Arg/RNAiMax, 4 μg was transfected using 3 μl of RNAiMax using manufacturer recommended protocols. Particles were diluted in Opti-MEM (Invitrogen), G418 (50 μg) and PTC124 ([…]) was added directly to the media. Nanoparticles were prepared by mixing all delivery components in ethanol, followed by rapid mixing with tRNA in 10 mM citrate buffer pH 4.3, such that the final mole ratio was 25:1 carrier:siRNA, and the carrier mixture of the formulation consisted of molar ratios 50:38:10:2 carrier: cholesterol: DSPC: PEG-lipid. […] After 48 hr, cells were lysed directly in 2× Sample Buffer ((Tris-HCL 250 mM, pH 6.8, 20% Glycerol, 2.5% SDS, 0.1% Bromophenol blue). Cell lysate proteins were separated by electrophoresis on 10% (wt/vol) polyacrylamide gels using a Tris-glycine buffering system and transferred to polyyinylidene fluoride Immobilon membranes (EMD Millipore). Western blot analysis was performed using primary p53 antibody (Santa Cruz Biotechnology, Inc) actin antibody (EMD Millipore), and secondary antibody IRdye-68ORD (Li-Cor) and imaged/quantified using a Li-Cor Odyssey CLx (Li-Cor).

As to `O=C(O)c1cccc(-c2noc(-c3ccccc3F)n2)c1` [PTC124], the “p53 expression (Western blot)” value is recorded as “only minimal p53 expression”.
The value for `CN[C@@H]1[C@@H](O)[C@@H](O[C@@H]2[C@@H](O)[C@H](O[C@H]3O[C@H]([C@@H](C)O)[C@@H](O)[C@H](O)[C@H]3N)[C@@H](N)C[C@H]2N)OC[C@]1(C)O` [G418] was “only minimal p53 expression”.
